Assay results published in PMC10923054, “Antiplasmodial peptaibols act through membrane directed mechanisms” (Cell Chemical Biology, 2024).
Square brackets hold non-standard residues; d marks the D form. Peptide text beside a SMILES is read from it. Phe(ol) = N[C@H](CO)Cc1ccccc1; Leu(ol) = CC(C)C[C@H](N)CO; dIva = CC[C@@](C)(N)C(=O)O; Aib = CC(C)(N)C(=O)O

Experiments:
P. falciparum Dd2 = test system: P. falciparum Dd2; parameters: method as in PMID: 33565879; conditions: asynchronous culture, 1% parasitemia, 1% hematocrit, 72 h, SYBR Green I; mean ± SEM, biological triplicate; ref PMID: 33565879; cited from earlier work
Description: Arrow length represents correlation strength. Arrow direction indicates positive/negative correlation. Peptaibols color-coded based on type. See also Figure S1. […] Values represent mean ± SEM. Resistance index (RI) = Dd2 EC50/3D7 EC50, Selectivity index (SI) = HepG2 EC50/Dd2 EC50.

red blood cell (RBC) = experiment: Percent hemolysis determination; type: cell-based, human; conditions: for Hemolytic Potential: Figure 7A summary; for hemolysis at 25 μM: RBCs in PBS, 1% hematocrit, 1 h, 37°C, absorbance 550 nm, 0.01% saponin control, biological triplicate; for Hemolytic Potential: key: -: A '–' indicates a negative finding; a single '+' indicates a positive finding; a double '++' indicates a strong positive finding
Method: Hemolysis assay performed as outlined in Duvall et al. with some modifications.[63] Whole blood was first washed and resuspended in PBS to isolate RBCs. Compound was then added in serial dilutions to PBS with 1% hematocrit, with vehicle or 0.01% saponin used as controls. Plates were incubated for 1 h at 37°C then centrifuged for 10 min at 900 x g. Supernatant was then transferred to a clear plate and absorbance was read at 550 nm. Extended incubation with compound (up to 3 days) was performed during assay optimization, with no changes noted in percent hemolysis.

[1] = test system: P. falciparum asexual blood stage parasites grown in 0.5% Albumax II; experiment: Antiplasmodial activity with Albumax II media; type: cell-based; conditions: RPMI with 0.5% Albumax II; mean ± SEM from 3 biological replicates
Method: Asexual blood stage parasites grown in the Chakrabarti laboratory were cultured based on a protocol by Trager and Jensen[57] with some modifications.[35] […] For comparison screening using serum vs Albumax II, culture media was changed from RPMI with 0.5% Albumax II to RPMI with 10% human serum and maintained for a minimum of 2 weeks prior to assay use.
Inhibitor EC50 determination in 3D7 and Dd2 was performed as discussed in,[35] based on established protocols.[60] Assays utilized asynchronous culture at 1% parasitemia, 1% hematocrit. Culture was incubated with compound dilutions for 72 h followed by freezing at −80°C to promote lysis, then thawing and incubation for 45 min–1 h with 1× SYBR Green I in a lysis buffer (20 mM Tris-HCL, 0.08% saponin, 5 mM EDTA, and 0.8% Triton X-100). Fluorescence was read 485 nm excitation, 530 nm emission on a Synergy Neo2 multimode reader (BioTek Winsooki, VT) and EC50 curves were generated using CDD Vault (https://www.collaborativedrug.com/).

[2] = test system: PbLuc (P. berghei ANKA GFP-Luc-SMcon sporozoites in HepG2-A16-CD81 cells); type: cell-based; conditions: 48 h after sporozoite addition, luciferase; mean ± SEM of 3 biological replicates; read-out: PbLuc EC50 (P. berghei liver stage)
Method: (§1) The liver stage was performed as discussed in.[61] Liver-stage inhibitory activity was evaluated in HepG2-A16-CD81 cells and using P. berghei sporozoites (P. berghei ANKA GFP-Luc-SMcon) freshly obtained by dissecting salivary glands of infected A. stephensi mosquitoes. Cells were first seeded in 1536-well plates (Greiner Bio) containing 50 nL of test and control compounds dissolved in DMSO and incubated for 24 h. Sporozoites were then added to each well at a density of 1 × 10^3 cells per well and kept at 37°C for 48 h. Afterwards, luciferin reagent (Promega BrightGlo) was added to each well, and luciferase activity was detected using a Perkin Elmer Envision plate. As a counter screen, HepG2-A16-CD81 cells were seeded as above and exposed to drug in the absence of sporozoites. Viability was evaluated by adding Promega CellTiterGlo® followed by luminescence measurement using a Perkin Elmer Envision plate reader. IC50 values were determined using CDD vault (https://www.collaborativedrug.com/).

HepG2-A16-CD81 cells = type: cell-based, H. sapiens; conditions: HepG2-A16-CD81 without sporozoites, CellTiterGlo; up to 50 μM; read-out: HepG2 EC50 (liver stage counter screen)
Method: as §1

[3] = test system: P. falciparum 3D7 transcripts; experiment: Real-time quantitative PCR validation; type: cell-based; conditions: normalized to serine-tRNA ligase; 3 biological replicates
Method: For RT-qPCR validation, total RNA was extracted as previously described from vehicle and HZ NPDG-I treated samples collected for the RNASeq analysis. A total of 500 ng of RNA from each sample was reverse transcribed into cDNA using the SuperScript First-Strand Synthesis System for RT-PCR (Invitrogen, Waltham, MA) with 100 ng of random hexamers. Synthesized cDNA from each of the 3 biological replicates was tested using Select Master Mix (Life Technologies, Carlsbad, CA) with 400 nM of forward and reverse primers using a QuantStudio 7 Flex qPCR machine (Thermo Fisher, Waltham, MA). SYBR fluorescence was normalized to passive reference dye ROX. Ct values were normalized using the […] method by normalizing to housekeeping gene serine-tRNA ligase (PF3D7_0717700) and then normalizing between the treated and untreated controls. PCR parameters included 50°C for 2 min, 95°C for 10 min, followed by 40 cycles of 95°C for 15 s, 55°C for 30 seconds, and 60°C for 30 seconds. Primer pair sequences are listed in full in Table S5.

Attb = type: cell-based, P. falciparum; conditions: Asexual Blood Stage DHODH; mean ± SEM of 3 biological replicates
Method: (§2) Parasites grown in the Winzeler laboratory for screening and drug selections were maintained in RPMI 1640 medium supplemented with 0.25% Albumax I, 26 mM sodium bicarbonate, 0.1 mM hypoxanthine, and […] gentamicin. Human O+ whole blood obtained from the Blood Bank of The Scripps Research Institute was used for cultivation (human subjects IRB number: 125933). Blood-stage cultures were kept at 37°C with 5% CO2, 3% O2, and 92% N2. Monitoring of parasitemia and parasite morphology was performed using microscopic evaluation of thin blood smears that were first fixed with methanol, and then stained with Giemsa.
(§3) Cross resistance screening was performed with 0.3% parasitemia, 2.5% hematocrit, dispensed into 1536-well black, clear bottom plates with pre-spotted compound using a MultiFloTM Microplate dispenser (BioTek) at a volume of 8 μL/well. Plates where then incubated at 37°C for 72 h, after which 10× SYBR Green I (Invitrogen) in a lysis buffer (20 mM Tris/HCl, 5 mM EDTA, 0.16% (w/v) saponin, 1.6% (v/v) […]) was then added using a MultiFloTM Microplate dispenser (BioTek) at a volume of 2 μL/well. After 24 h incubation at room temperature, viability was measured via fluorescence using the EnVision® Multilabel Reader (PerkinElmer) (485 nm excitation, 530 nm emission). IC50 values were determined in CDD vault (https://www.collaborativedrug.com/).

attb ScDHODH = type: cell-based, P. falciparum; conditions: Asexual Blood Stage DHODH; line expressing S. cerevisiae DHODH; mean ± SEM of 3 biological replicates
Method: as §2, §3

## CC[C@H](C)[C@H](NC(=O)[C@H](C)NC(=O)[C@@H]1CCCN1C(=O)C(C)(C)NC(=O)[C@H](CC(C)C)NC(=O)[C@H](CCC(N)=O)NC(=O)[C@@](C)(CC)NC(C)=O)C(=O)NC(C)(C)C(=O)N1CCC[C@H]1C(=O)N[C@](C)(CC)C(=O)N[C@@H](CC(C)C)C(=O)NC(C)(C)C(=O)N1CCC[C@H]1C(=O)N[C@H](CO)CC(C)C [HZ NPDG-H, harzianin NPDG H] (Ac-[dIva]QL[Aib]PAI[Aib]P[dIva]L[Aib]P[Leu(ol)])
P. falciparum Dd2
  EC50: 330 ± 90 nM
Red blood cell (RBC)
  Hemolytic Potential: -
[1]
  EC50: 330 ± 90 nM

## CC[C@@](C)(NC(=O)C(C)(C)NC(=O)[C@H](CC(C)C)NC(=O)[C@@H]1CCCN1C(=O)C(C)(C)NC(=O)[C@H](CC(C)C)NC(=O)CNC(=O)C(C)(C)NC(=O)[C@@H](NC(=O)C(C)(C)NC(=O)[C@H](CCC(N)=O)NC(=O)C(C)(C)NC(=O)C(C)(C)NC(=O)[C@H](C)NC(=O)CNC(=O)C(C)(C)NC(C)=O)C(C)C)C(=O)N[C@@H](CCC(N)=O)C(=O)N[C@H](CO)CC(C)C [TC HA-II, trichorzin HA II] (Ac-[Aib]GA[Aib][Aib]Q[Aib]V[Aib]GL[Aib]PL[Aib][dIva]Q[Leu(ol)])
Red blood cell (RBC)
  hemolysis at 25 μM: 53%
  Hemolytic Potential: +

## CC[C@H](C)[C@H](NC(=O)[C@H](CC(C)C)NC(=O)[C@H](CCC(N)=O)NC(=O)[C@@](C)(CC)NC(C)=O)C(=O)NC(C)(C)C(=O)N1CCC[C@H]1C(=O)N[C@](C)(CC)C(=O)N[C@@H](CC(C)C)C(=O)NC(C)(C)C(=O)N1CCC[C@H]1C(=O)N[C@H](CO)CC(C)C [HZ NPDG-I, harzianin NPDG I] (Ac-[dIva]QLI[Aib]P[dIva]L[Aib]P[Leu(ol)])
[2]
  EC50: 2700 nM
P. falciparum Dd2
  EC50: 100 nM
HepG2-A16-CD81 cells
  EC50: > 50000 nM
[3]
  RT-qPCR mean fold change, F3D7_0106100: −5.86
  RT-qPCR mean fold change, MSTRG.194.1: 1.52
  RT-qPCR mean fold change, MSTRG.363.2: 2.56
  RT-qPCR mean fold change, PF3D7_0519200: −22.26
  RT-qPCR mean fold change, PF37D_1419800: −7.27
Red blood cell (RBC)
  Hemolytic Potential: -
[1]
  EC50: 100 ± 10 nM
Attb
  EC50: 5.7 ± 2.3 nM
Attb ScDHODH
  EC50: 9.1 ± 1.5 nM

## CC(=O)NC(C)(C)C(=O)N1CCC[C@H]1C(=O)NC(C)(C)C(=O)N[C@@H](C)C(=O)NC(C)(C)C(=O)N[C@@H](C)C(=O)N[C@@H](CCC(N)=O)C(=O)NC(C)(C)C(=O)N[C@H](C(=O)NC(C)(C)C(=O)NCC(=O)N[C@@H](CC(C)C)C(=O)NC(C)(C)C(=O)N1CCC[C@H]1C(=O)N[C@H](C(=O)NC(C)(C)C(=O)NC(C)(C)C(=O)N[C@@H](CCC(=O)O)C(=O)N[C@@H](CCC(N)=O)C(=O)N[C@H](CO)Cc1ccccc1)C(C)C)C(C)C [Alamethicin, reference compound] (Ac-[Aib]P[Aib]A[Aib]AQ[Aib]V[Aib]GL[Aib]PV[Aib][Aib]EQ[Phe(ol)]; N-terminus assumed)
Red blood cell (RBC)
  hemolysis at 25 μM: 73%
